Data set [1] can be described thus: Cytotoxicity against mouse J774A1 cells after 72 hrs by MTT assay. The data set is classed as cell-based, J774.A1.
Data set [2] relates to Leishmania donovani. Nature of the data set: Anti-leishmanial activity against promastigote stage of Leishmania donovani MHOM/IN/Dd8 harboring luciferase gene at 12.5 ug/ml after 72 hrs by luminescence assay relative to control. Type of data set: functional. The settings on record: for inhibition at 12.5 µg/mL: MHOM/IN/Dd8, 72 h.
Data set [3] concerns Leishmania donovani. Put plainly: Anti-leishmanial activity against intracellular amastigote stage of Leishmania donovani harboring luciferase gene infected in mouse J774A1 cells at 12.5 ug/ml after 72 hrs by luminescence assay relative to control. The data set is classed as functional. The settings on record: for inhibition at 12.5 µg/mL: J774.A1, 72 h.

Values after ≈ are worked out from the molar mass of the structure shown. Active and inactive are the calls of the source. No cut-off for these calls is given here.

With `CC(=O)SC(SC(C)=O)c1cn(CCCCOc2ccc(C#N)cc2)c2ccccc12`, in data set [1], the half-maximal cytotoxic concentration (CC50) (in general, the concentration at which the toxic effect on the cells reaches its halfway point) at 72 h was more than 100 µg/mL. For the same compound, the inhibition (as a rule, the percentage by which the read-out fell short of the control) at 12.5 µg/mL in data set [2] worked out at 90.9%; in data set [3] it was 97.8%.

Consider `CC(=O)SC(SC(C)=O)c1cn(C)c2ccccc12`, for which the inhibition at 12.5 µg/mL in data set [2] is 31%.

The compound `CC(=O)SC(SC(C)=O)c1cn(CCCCCOc2ccc(C#N)cc2)c2ccccc12` yielded a CC50 at 72 h in data set [1] of more than 100 µg/mL. Also, the inhibition at 12.5 µg/mL amounted to 96% in data set [2] and 99.8% in data set [3].

For `N#Cc1ccc(OCCCCCn2cc(C=O)c3ccccc32)cc1`, the inhibition entry in data set [2] and in data set [3] was “inactive” each time.

As to `CCCCn1cc(C(SC(C)=O)SC(C)=O)c2ccccc21`, the inhibition at 12.5 µg/mL in data set [2] worked out at 74%.

`CC(=O)SC(SC(C)=O)c1cn(CCCCCN2CCN(c3ccccc3)CC2)c2ccccc12` yielded a CC50 at 72 h in data set [1] of 13.8 µg/mL (≈ 27.1 µM). Further, the inhibition at 12.5 µg/mL in data set [2] was 60.1%; in data set [3], 86.8%.

As for `CC(=O)SC(SC(C)=O)c1cn(CCCCCCOc2ccc(C#N)cc2)c2ccccc12`, the CC50 at 72 h in data set [1] was more than 100 µg/mL. Further, the results for the inhibition at 12.5 µg/mL in data set [2] and in data set [3] were 91.6% and 40.2%, respectively.

Source of the values: ChEMBL document CHEMBL4043229, “gem-Dithioacetylated indole derivatives as novel antileishmanial agents” (Bioorg Med Chem Lett, 2017).
